Values of other authors as cited in patent US12648566B2, “Solid bio-pesticidal composition comprising of elemental sulphur and azadirachtin” (SML LIMITED, priority 2021, dated 2026).

Settings: buffer, pH 4

Question: Which laboratory half-life does the source give for `C/C=C(\C)C(=O)O[C@H]1C[C@@H](OC(C)=O)[C@@]2(C(=O)OC)CO[C@H]3[C@@H](O)[C@@](C)([C@]45O[C@@]4(C)[C@H]4C[C@@H]5O[C@@H]5OC=C[C@@]54O)[C@H]4[C@]1(CO[C@]4(O)C(=O)OC)[C@@H]32` [Azadirachtin] here?
Answer: The laboratory half-life was 50 to 100 days.
